Data as given in ChEMBL document CHEMBL3885881, “DrugMatrix”.

Organism: Rattus norvegicus
Assay: DrugMatrix - Regimen: Daily Repeat
Assay type: toxicity, organism-based, Sprague-Dawley
Design: regimen Daily Repeat, gender Male, age 6-8 weeks
Conditions: in vivo, po, route oral GAVAGE, vehicle 100 % WATER; for ABSOLUTE BASOPHIL / ABSOLUTE EOSINOPHIL / ABSOLUTE LYMPHOCYTE / ABSOLUTE MONOCYTE / ABSOLUTE SEGMENTED NEUTROPHIL / BASOPHIL / EOSINOPHIL / ERYTHROCYTE COUNT / HEMATOCRIT / HEMOGLOBIN / LEUKOCYTE COUNT / LYMPHOCYTE / MEAN CORPUSCULAR HEMOGLOBIN / MEAN CORPUSCULAR HEMOGLOBIN CONCENTRATION / MEAN CORPUSCULAR VOLUME / MONOCYTE / NEUTROPHIL / NUCLEATED RED BLOOD CELLS / PLATELET COUNT: tissue Blood; for ALANINE AMINOTRANSFERASE / ALBUMIN / ALKALINE PHOSPHATASE / ASPARTATE AMINOTRANSFERASE / BLOOD UREA NITROGEN / CARBON DIOXIDE / CHLORIDE / CHOLESTEROL / CREATINE PHOSPHOKINASE / CREATININE / GLUCOSE / LACTATE DEHYDROGENASE / LIPASE / PHOSPHORUS / POTASSIUM / SODIUM / TOTAL BILIRUBIN / TOTAL PROTEIN / URIC ACID: tissue Plasma
[1] = 30 mg/kg, 72 h, dose level Low, time 3 day
[2] = 30 mg/kg, 120 h, dose level Low, time 5 day
[3] = 3000 mg/kg, 72 h, dose level High, time 3 day
[4] = 3000 mg/kg, 120 h, dose level High, time 5 day

Structure (SMILES): O=C(O)CC(O)(CC(=O)O)C(=O)O [CITRIC ACID]
- ABSOLUTE BASOPHIL [1]: 0 CELLS/uL
- ABSOLUTE EOSINOPHIL [1]: 0 CELLS/uL
- ABSOLUTE LYMPHOCYTE [1]: 12691.33 CELLS/uL
- ABSOLUTE MONOCYTE [1]: 367.33 CELLS/uL
- ABSOLUTE SEGMENTED NEUTROPHIL [1]: 908 CELLS/uL
- BASOPHIL [1]: 0%
- EOSINOPHIL [1]: 0%
- ERYTHROCYTE COUNT [1]: 5.83 x10E6/uL
- HEMATOCRIT [1]: 37%
- HEMOGLOBIN [1]: 14.67 G/DL
- LEUKOCYTE COUNT [1]: 13.97 x10E3/uL
- LYMPHOCYTE [1]: 91%
- MEAN CORPUSCULAR HEMOGLOBIN [1]: 25.17 pg
- MEAN CORPUSCULAR HEMOGLOBIN CONCENTRATION [1]: 39.67 G/DL
- MEAN CORPUSCULAR VOLUME [1]: 63.43 fL
- MONOCYTE [1]: 2.67%
- NEUTROPHIL [1]: 6.33%
- NUCLEATED RED BLOOD CELLS [1]: 0 /100WBC
- PLATELET COUNT [1]: 1121.33 x10E3/uL
- ALANINE AMINOTRANSFERASE [1]: 54.67 u/L
- ALBUMIN [1]: 4.2 G/DL
- ALKALINE PHOSPHATASE [1]: 442.33 u/L
- ASPARTATE AMINOTRANSFERASE [1]: 93.33 u/L
- BLOOD UREA NITROGEN [1]: 13.33 mg/dL
- CARBON DIOXIDE [1]: 23 mmol/L
- CHLORIDE [1]: 102.33 MEQ/L
- CHOLESTEROL [1]: 85.67 mg/dL
- CREATINE PHOSPHOKINASE [1]: 514.33 u/L
- CREATININE [1]: 0.18 mg/dL
- GLUCOSE [1]: 184.33 mg/dL
- LACTATE DEHYDROGENASE [1]: 173 u/L
- LIPASE [1]: 9.67 u/L
- PHOSPHORUS [1]: 12.77 mg/dL
- POTASSIUM [1]: 6.46 MEQ/L
- SODIUM [1]: 146.53 MEQ/L
- TOTAL BILIRUBIN [1]: 0.2 mg/dL
- TOTAL PROTEIN [1]: 5.97 G/DL
- URIC ACID [1]: 2.5 mg/dL
- ABSOLUTE BASOPHIL [2]: 0 CELLS/uL
- ABSOLUTE EOSINOPHIL [2]: 0 CELLS/uL
- ABSOLUTE LYMPHOCYTE [2]: 16594.33 CELLS/uL
- ABSOLUTE MONOCYTE [2]: 186.67 CELLS/uL
- ABSOLUTE SEGMENTED NEUTROPHIL [2]: 1885.67 CELLS/uL
- BASOPHIL [2]: 0%
- EOSINOPHIL [2]: 0%
- ERYTHROCYTE COUNT [2]: 5.64 x10E6/uL
- HEMATOCRIT [2]: 37.07%
- HEMOGLOBIN [2]: 14.63 G/DL
- LEUKOCYTE COUNT [2]: 18.67 x10E3/uL
- LYMPHOCYTE [2]: 88.67%
- MEAN CORPUSCULAR HEMOGLOBIN [2]: 25.97 pg
- MEAN CORPUSCULAR HEMOGLOBIN CONCENTRATION [2]: 39.47 G/DL
- MEAN CORPUSCULAR VOLUME [2]: 65.7 fL
- MONOCYTE [2]: 1%
- NEUTROPHIL [2]: 10.33%
- NUCLEATED RED BLOOD CELLS [2]: 0 /100WBC
- PLATELET COUNT [2]: 1295.33 x10E3/uL
- ALANINE AMINOTRANSFERASE [2]: 48 u/L
- ALBUMIN [2]: 4.2 G/DL
- ALKALINE PHOSPHATASE [2]: 374.67 u/L
- ASPARTATE AMINOTRANSFERASE [2]: 80.67 u/L
- BLOOD UREA NITROGEN [2]: 18 mg/dL
- CARBON DIOXIDE [2]: 23 mmol/L
- CHLORIDE [2]: 103.67 MEQ/L
- CHOLESTEROL [2]: 77 mg/dL
- CREATINE PHOSPHOKINASE [2]: 316.33 u/L
- CREATININE [2]: 0.18 mg/dL
- GLUCOSE [2]: 154.33 mg/dL
- LACTATE DEHYDROGENASE [2]: 396.33 u/L
- LIPASE [2]: 10.33 u/L
- PHOSPHORUS [2]: 13.53 mg/dL
- POTASSIUM [2]: 6.74 MEQ/L
- SODIUM [2]: 147.27 MEQ/L
- TOTAL BILIRUBIN [2]: 0.2 mg/dL
- TOTAL PROTEIN [2]: 6.03 G/DL
- URIC ACID [2]: 1.4 mg/dL
- ABSOLUTE BASOPHIL [3]: 0 CELLS/uL
- ABSOLUTE EOSINOPHIL [3]: 0 CELLS/uL
- ABSOLUTE LYMPHOCYTE [3]: 12922.33 CELLS/uL
- ABSOLUTE MONOCYTE [3]: 727.33 CELLS/uL
- ABSOLUTE SEGMENTED NEUTROPHIL [3]: 1850.33 CELLS/uL
- BASOPHIL [3]: 0%
- EOSINOPHIL [3]: 0%
- ERYTHROCYTE COUNT [3]: 5.42 x10E6/uL
- HEMATOCRIT [3]: 33.17%
- HEMOGLOBIN [3]: 13.3 G/DL
- LEUKOCYTE COUNT [3]: 15.5 x10E3/uL
- LYMPHOCYTE [3]: 83.67%
- MEAN CORPUSCULAR HEMOGLOBIN [3]: 24.53 pg
- MEAN CORPUSCULAR HEMOGLOBIN CONCENTRATION [3]: 40.1 G/DL
- MEAN CORPUSCULAR VOLUME [3]: 61.2 fL
- MONOCYTE [3]: 4.67%
- NEUTROPHIL [3]: 11.67%
- NUCLEATED RED BLOOD CELLS [3]: 0 /100WBC
- PLATELET COUNT [3]: 1290.67 x10E3/uL
- ALANINE AMINOTRANSFERASE [3]: 49.67 u/L
- ALBUMIN [3]: 4.17 G/DL
- ALKALINE PHOSPHATASE [3]: 428.33 u/L
- ASPARTATE AMINOTRANSFERASE [3]: 78.33 u/L
- BLOOD UREA NITROGEN [3]: 15.67 mg/dL
- CARBON DIOXIDE [3]: 26.67 mmol/L
- CHLORIDE [3]: 103 MEQ/L
- CHOLESTEROL [3]: 70.33 mg/dL
- CREATINE PHOSPHOKINASE [3]: 223 u/L
- CREATININE [3]: 0.2 mg/dL
- GLUCOSE [3]: 155 mg/dL
- LACTATE DEHYDROGENASE [3]: 102.33 u/L
- LIPASE [3]: 9.67 u/L
- PHOSPHORUS [3]: 12.67 mg/dL
- POTASSIUM [3]: 6.48 MEQ/L
- SODIUM [3]: 145.77 MEQ/L
- TOTAL BILIRUBIN [3]: 0.2 mg/dL
- TOTAL PROTEIN [3]: 5.53 G/DL
- URIC ACID [3]: 1.37 mg/dL
- ABSOLUTE BASOPHIL [4]: 0 CELLS/uL
- ABSOLUTE EOSINOPHIL [4]: 62.33 CELLS/uL
- ABSOLUTE LYMPHOCYTE [4]: 16836 CELLS/uL
- ABSOLUTE MONOCYTE [4]: 0 CELLS/uL
- ABSOLUTE SEGMENTED NEUTROPHIL [4]: 2301.67 CELLS/uL
- BASOPHIL [4]: 0%
- EOSINOPHIL [4]: 0.33%
- ERYTHROCYTE COUNT [4]: 5.65 x10E6/uL
- HEMATOCRIT [4]: 36.43%
- HEMOGLOBIN [4]: 14.37 G/DL
- LEUKOCYTE COUNT [4]: 19.2 x10E3/uL
- LYMPHOCYTE [4]: 87.67%
- MEAN CORPUSCULAR HEMOGLOBIN [4]: 25.5 pg
- MEAN CORPUSCULAR HEMOGLOBIN CONCENTRATION [4]: 39.47 G/DL
- MEAN CORPUSCULAR VOLUME [4]: 64.63 fL
- MONOCYTE [4]: 0%
- NEUTROPHIL [4]: 12%
- NUCLEATED RED BLOOD CELLS [4]: 1 /100WBC
- PLATELET COUNT [4]: 1284.33 x10E3/uL
- ALANINE AMINOTRANSFERASE [4]: 50 u/L
- ALBUMIN [4]: 4.2 G/DL
- ALKALINE PHOSPHATASE [4]: 416.67 u/L
- ASPARTATE AMINOTRANSFERASE [4]: 71.67 u/L
- BLOOD UREA NITROGEN [4]: 16.67 mg/dL
- CARBON DIOXIDE [4]: 23.67 mmol/L
- CHLORIDE [4]: 102 MEQ/L
- CHOLESTEROL [4]: 77 mg/dL
- CREATINE PHOSPHOKINASE [4]: 254.67 u/L
- CREATININE [4]: 0.2 mg/dL
- GLUCOSE [4]: 151 mg/dL
- LACTATE DEHYDROGENASE [4]: 91.33 u/L
- LIPASE [4]: 10.33 u/L
- PHOSPHORUS [4]: 13.03 mg/dL
- POTASSIUM [4]: 6.54 MEQ/L
- SODIUM [4]: 144.77 MEQ/L
- TOTAL BILIRUBIN [4]: 0.23 mg/dL
- TOTAL PROTEIN [4]: 5.93 G/DL
- URIC ACID [4]: 1.57 mg/dL
